Reference: the NIST ThermoML archive (doi:10.1016/j.jct.2006.02.001)
Values joined by “and” are separate entries in the source; they are usually repeats but may differ in a detail not shown here. Identical values can stand only once. ± gives the expanded uncertainty stated by the source.

Experiments:
[1] = 101 kPa, Liquid
[2] = refractive index (Na D-line) (dimensionless); conditions: 101.33 kPa, Liquid
[3] = xn = mol fraction of the nth substance listed; conditions: 101 kPa, Liquid
[4] = refractive index (Na D-line) (dimensionless); xn = mol fraction of the nth substance listed; conditions: 101 kPa, Liquid

Cc1ccccc1C [1,2-dimethylbenzene]
Conditions	mass density, 288.15 K [kg/m3]	mass density, 293.15 K [kg/m3]	mass density, 298.15 K [kg/m3]	mass density, 303.15 K [kg/m3]	refractive index, 288.15 K	refractive index, 293.15 K	refractive index, 298.15 K	refractive index, 303.15 K
[1]	883.29 ± 0.91	879.08 ± 0.92	875.53 ± 0.94	870.73 ± 0.95	–	–	–	–
[2]	–	–	–	–	1.5072 ± 0.0096	1.5047 ± 0.0096	1.5018 ± 0.0096	1.5 ± 0.0096

Cc1cc(C)cc(C)c1 [1,3,5-trimethylbenzene]
Conditions	mass density, 288.15 K [kg/m3]	mass density, 293.15 K [kg/m3]	mass density, 298.15 K [kg/m3]	mass density, 303.15 K [kg/m3]	refractive index, 288.15 K	refractive index, 293.15 K	refractive index, 298.15 K	refractive index, 303.15 K
[1]	869.17 ± 0.97	865.07 ± 0.98	861.06 ± 1	856.95 ± 1	–	–	–	–
[2]	–	–	–	–	1.5045 ± 0.0097	1.4993 ± 0.0096	1.4976 ± 0.0096	1.4948 ± 0.0096

Cc1cccc(C)c1 [1,3-dimethylbenzene]
Conditions	mass density, 288.15 K [kg/m3]	mass density, 293.15 K [kg/m3]	mass density, 298.15 K [kg/m3]	mass density, 303.15 K [kg/m3]	refractive index, 288.15 K	refractive index, 293.15 K	refractive index, 298.15 K	refractive index, 303.15 K
[1]	868.32 ± 0.89	864.05 ± 0.91	859.77 ± 0.93	855.47 ± 0.95	–	–	–	–
[2]	–	–	–	–	1.4997 ± 0.0096	1.4973 ± 0.0096	1.4944 ± 0.0096	1.4925 ± 0.0096

Cc1ccc(C)cc1 [1,4-dimethylbenzene]
Conditions	mass density, 288.15 K [kg/m3]	mass density, 293.15 K [kg/m3]	mass density, 298.15 K [kg/m3]	mass density, 303.15 K [kg/m3]	refractive index, 288.15 K	refractive index, 293.15 K	refractive index, 298.15 K	refractive index, 303.15 K
[1]	865.25 ± 0.91	860.92 ± 0.93	856.62 ± 0.94	852.25 ± 0.96	–	–	–	–
[2]	–	–	–	–	1.4983 ± 0.0096	1.4958 ± 0.0096	1.4929 ± 0.0096	1.4915 ± 0.0096

COc1ccccc1 [anisole]
Conditions	mass density, 288.15 K [kg/m3]	mass density, 293.15 K [kg/m3]	mass density, 298.15 K [kg/m3]	mass density, 303.15 K [kg/m3]	refractive index, 288.15 K	refractive index, 293.15 K	refractive index, 298.15 K	refractive index, 303.15 K
[1]	998.44 ± 1.4	993.65 ± 1.5	989.15 ± 1.6	984.37 ± 1.6	–	–	–	–
[2]	–	–	–	–	1.5256 ± 0.0097	1.5172 ± 0.0097 and 1.5169 ± 0.0097	1.5141 ± 0.0096	1.5117 ± 0.0096

COc1ccccc1 [anisole] + c1ccccc1
Conditions	mass density, 288.15 K [kg/m3]	mass density, 293.15 K [kg/m3]	mass density, 298.15 K [kg/m3]	mass density, 303.15 K [kg/m3]	refractive index, 288.15 K	refractive index, 293.15 K	refractive index, 298.15 K	refractive index, 303.15 K
[3], x1 = 0.105	898.53 ± 3	891.31 ± 3.1	888.2 ± 3.1	882.91 ± 3.2	–	–	–	–
[3], x1 = 0.201	911.14 ± 2.8	904.23 ± 2.9	900.97 ± 2.9	895.75 ± 3	–	–	–	–
[3], x1 = 0.3173	925.73 ± 2.5	919.17 ± 2.6	915.76 ± 2.7	910.6 ± 2.8	–	–	–	–
[3], x1 = 0.4192	937.94 ± 2.4	931.66 ± 2.5	928.1 ± 2.5	923 ± 2.6	–	–	–	–
[3], x1 = 0.5126	948.66 ± 2.2	942.64 ± 2.3	938.93 ± 2.3	933.89 ± 2.4	–	–	–	–
[3], x1 = 0.6139	959.83 ± 2	954.08 ± 2.1	950.21 ± 2.2	945.24 ± 2.2	–	–	–	–
[3], x1 = 0.7067	969.67 ± 1.9	964.17 ± 1.9	960.12 ± 2	955.22 ± 2.1	–	–	–	–
[3], x1 = 0.797	978.88 ± 1.7	973.61 ± 1.8	969.41 ± 1.9	964.57 ± 1.9	–	–	–	–
[3], x1 = 0.9002	989.01 ± 1.6	983.99 ± 1.6	979.62 ± 1.7	974.85 ± 1.8	–	–	–	–
[3], x1 = 1	998.44 ± 1.4	993.65 ± 1.5	989.15 ± 1.6	984.37 ± 1.6	–	–	–	–
[4], x1 = 0.105	–	–	–	–	1.5076 ± 0.0096	1.5032 ± 0.0096	1.5001 ± 0.0097	1.4884 ± 0.0099
[4], x1 = 0.201	–	–	–	–	1.51 ± 0.0096	1.5051 ± 0.0096	1.5019 ± 0.0097	1.4914 ± 0.0098
[4], x1 = 0.3173	–	–	–	–	1.5127 ± 0.0097	1.5072 ± 0.0096	1.5041 ± 0.0097	1.4949 ± 0.0098
[4], x1 = 0.4192	–	–	–	–	1.5149 ± 0.0097	1.509 ± 0.0096	1.5058 ± 0.0097	1.4978 ± 0.0097
[4], x1 = 0.5126	–	–	–	–	1.5168 ± 0.0097	1.5105 ± 0.0096	1.5074 ± 0.0097	1.5003 ± 0.0097
[4], x1 = 0.6139	–	–	–	–	1.5188 ± 0.0097	1.5121 ± 0.0097	1.5089 ± 0.0096	1.5029 ± 0.0097
[4], x1 = 0.7067	–	–	–	–	1.5206 ± 0.0097	1.5134 ± 0.0097	1.5103 ± 0.0096	1.5052 ± 0.0097
[4], x1 = 0.797	–	–	–	–	1.5222 ± 0.0097	1.5147 ± 0.0097	1.5115 ± 0.0096	1.5073 ± 0.0096
[4], x1 = 0.9002	–	–	–	–	1.524 ± 0.0097	1.516 ± 0.0097	1.5129 ± 0.0096	1.5096 ± 0.0096
[4], x1 = 1	–	–	–	–	1.5256 ± 0.0097	1.5172 ± 0.0097	1.5141 ± 0.0096	1.5117 ± 0.0096

c1ccccc1 [benzene]
Conditions	mass density, 288.15 K [kg/m3]	mass density, 293.15 K [kg/m3]	mass density, 298.15 K [kg/m3]	mass density, 303.15 K [kg/m3]	refractive index, 288.15 K	refractive index, 293.15 K	refractive index, 298.15 K	refractive index, 303.15 K
[1]	884.11 ± 3.2	876.53 ± 3.3	873.6 ± 3.4	868.23 ± 3.5	–	–	–	–
[2]	–	–	–	–	1.505 ± 0.0096	1.5011 ± 0.0096	1.4979 ± 0.0097	1.4849 ± 0.0099

c1ccccc1 [benzene] + COc1ccccc1
x2 = 0
Conditions	mass density, 288.15 K [kg/m3]	mass density, 293.15 K [kg/m3]	mass density, 298.15 K [kg/m3]	mass density, 303.15 K [kg/m3]	refractive index, 288.15 K	refractive index, 293.15 K	refractive index, 298.15 K	refractive index, 303.15 K
[3]	884.11 ± 3.2	876.53 ± 3.3	873.6 ± 3.4	868.23 ± 3.5	–	–	–	–
[4]	–	–	–	–	1.505 ± 0.0096	1.5011 ± 0.0096	1.4979 ± 0.0097	1.4849 ± 0.0099

Cc1ccccc1 [toluene]
Conditions	mass density, 288.15 K [kg/m3]	mass density, 293.15 K [kg/m3]	mass density, 298.15 K [kg/m3]	mass density, 303.15 K [kg/m3]	refractive index, 288.15 K	refractive index, 293.15 K	refractive index, 298.15 K	refractive index, 303.15 K
[1]	871.41 ± 0.84	866.87 ± 0.86	862.2 ± 0.88	857.46 ± 0.9	–	–	–	–
[2]	–	–	–	–	1.4996 ± 0.0096	1.497 ± 0.0096	1.4944 ± 0.0096	1.4918 ± 0.0096

Cc1ccccc1 [toluene] + COc1ccccc1
x2 = 0
Conditions	mass density, 288.15 K [kg/m3]	mass density, 293.15 K [kg/m3]	mass density, 298.15 K [kg/m3]	mass density, 303.15 K [kg/m3]	refractive index, 288.15 K	refractive index, 293.15 K	refractive index, 298.15 K	refractive index, 303.15 K
[3]	871.41 ± 0.84	866.87 ± 0.86	862.2 ± 0.88	857.46 ± 0.9	–	–	–	–
[4]	–	–	–	–	1.4996 ± 0.0096	1.497 ± 0.0096	1.4944 ± 0.0096	1.4918 ± 0.0096
